Laboratory results reported in the NIST ThermoML archive (doi:10.1016/j.tca.2012.11.015).

Assay: molar heat capacity at constant pressure
Conditions: 101.33 kPa, Crystal, Small sample (50 mg) DSC

[F-].[F-].[F-].[F-].[Li+].[Lu+3] [lithium lutetium fluoride]
Conditions | molar heat capacity at constant pressure [J/K/mol]
319.1 K | 130.85
320.6 K | 131.02
322.3 K | 131.32
324.2 K | 132.25
326.3 K | 132.67
328.5 K | 133
330.9 K | 133.72
333.4 K | 133.98
336 K | 134.52
338.8 K | 134.79
341.6 K | 135.17
344.6 K | 135.52
347.6 K | 135.82
350.6 K | 136.23
353.7 K | 136.42
356.9 K | 136.86
360.1 K | 137.1
363.4 K | 137.35
366.6 K | 137.71
369.9 K | 138.05
373.2 K | 138.18
376.4 K | 138.33
379.7 K | 138.6
382.9 K | 138.79
386.1 K | 139.07
389.3 K | 139.36
392.5 K | 139.51
395.7 K | 139.75
398.8 K | 140.02
401.9 K | 140.28
405 K | 140.35
408.1 K | 140.55
411.1 K | 140.85
414.1 K | 141
417.1 K | 141.21
420.1 K | 141.55
423.1 K | 141.68
426 K | 141.88
428.9 K | 142.09
431.8 K | 142.34
434.6 K | 142.51
437.4 K | 142.74
440.3 K | 142.93
443.1 K | 143.15
445.8 K | 143.38
448.6 K | 143.52
451.3 K | 143.71
454.1 K | 144.09
456.8 K | 144.11
459.5 K | 144.4
462.2 K | 144.65
464.9 K | 144.87
467.6 K | 145.03
470.3 K | 145.2
473 K | 145.33
475.6 K | 145.69
478.3 K | 146.04
480.9 K | 146.21
483.5 K | 146.26
486.2 K | 146.62
488.8 K | 146.64
491.4 K | 146.9
494 K | 147.09
496.6 K | 147.19
499.2 K | 147.37
501.8 K | 147.62
504.4 K | 147.87
506.9 K | 148.03
509.5 K | 148.01
512.1 K | 148.31
514.7 K | 148.51
517.2 K | 148.78
519.8 K | 148.72
522.4 K | 148.99
524.9 K | 149.11
527.5 K | 149.23
530 K | 149.4
532.6 K | 149.69
535.1 K | 149.98
537.6 K | 150.02
540.2 K | 150.02
542.7 K | 150.2
545.2 K | 150.41
547.8 K | 150.44
550.3 K | 150.65
552.8 K | 150.77
555.4 K | 150.97
557.9 K | 151.21
560.4 K | 151.31
562.9 K | 151.22
565.4 K | 151.35
567.9 K | 151.77
570.4 K | 152.1
572.9 K | 151.97
575.4 K | 152.01
577.9 K | 152.43
580.4 K | 152.52
582.9 K | 152.55
585.4 K | 152.99
587.9 K | 153.06
590.4 K | 153.4
592.8 K | 153.37
595.3 K | 153.54
597.8 K | 153.59
600.3 K | 153.68
602.8 K | 153.91
605.3 K | 153.92
607.7 K | 153.98
610.2 K | 154.22
612.7 K | 154.27
615.2 K | 154.37
617.6 K | 154.5
620.1 K | 154.88
622.6 K | 154.95
625.1 K | 154.9
627.5 K | 155.19
630 K | 155.25
632.5 K | 155.38
634.9 K | 155.28
637.4 K | 155.32
639.9 K | 155.57
642.3 K | 155.79
644.8 K | 156.13
647.3 K | 155.71
649.7 K | 156.15
652.2 K | 156.38
654.7 K | 156.1
657.1 K | 156.18
659.6 K | 156.74
662.1 K | 156.82
664.5 K | 156.91
667 K | 157.05
669.5 K | 157.26
671.9 K | 157.26
674.4 K | 157.34
676.9 K | 157.51
679.3 K | 157.82
681.8 K | 157.78
684.3 K | 157.7
686.7 K | 157.84
689.2 K | 158.11
691.6 K | 158.21
694.1 K | 158.28
696.6 K | 158.3
699 K | 158.66
701.5 K | 158.32
704 K | 158.88
706.4 K | 158.86
708.9 K | 158.73
711.3 K | 159.06
713.8 K | 159.12
716.3 K | 159.23
718.7 K | 159.5
721.2 K | 159.17
723.7 K | 159.42
726.1 K | 159.52
728.6 K | 159.81
731 K | 159.67
733.5 K | 159.82
736 K | 160.19
738.4 K | 160.21
740.9 K | 159.84
743.4 K | 160.74
745.8 K | 160.23
748.3 K | 160.71
750.8 K | 160.51
753.2 K | 160.71
755.7 K | 160.47
758.1 K | 161.09
760.6 K | 160.99
763.1 K | 161.08
765.5 K | 161.21
768 K | 161.19
770.5 K | 161.33
773 K | 161.68
775.4 K | 161.44
777.9 K | 161.42
780.4 K | 161.69
782.8 K | 161.76
785.3 K | 161.68
787.8 K | 161.79
790.2 K | 161.81
792.7 K | 161.94
795.2 K | 162.55
797.7 K | 162.37
800.1 K | 162.27
802.6 K | 162.36
805.1 K | 162.55
807.5 K | 162.68
810 K | 162.67
812.5 K | 162.66
815 K | 162.95
817.4 K | 162.84
819.9 K | 162.94
822.4 K | 163.1
824.9 K | 163.41
827.3 K | 163.19
829.8 K | 163.53
832.3 K | 163.61
834.8 K | 163.59
837.3 K | 163.47
839.8 K | 163.45
842.2 K | 163.53
844.7 K | 163.85
847.2 K | 163.88
849.6 K | 163.86
852.1 K | 163.85
854.6 K | 163.88
857.1 K | 163.9
859.6 K | 164.11
862.1 K | 164.25
864.6 K | 164.33
867 K | 164.11
869.5 K | 164.63
872 K | 164.68
874.5 K | 164.55
877 K | 164.67
879.5 K | 164.73
881.9 K | 165.01
884.4 K | 164.63
886.9 K | 165.15
889.4 K | 164.71
891.9 K | 164.79
894.4 K | 164.9
896.9 K | 165
899.4 K | 165.27
901.8 K | 165.61
904.3 K | 165.53
906.8 K | 165.9
909.3 K | 165.68
911.8 K | 166.05
914.3 K | 165.94
916.8 K | 165.71
919.3 K | 165.93
921.7 K | 165.89
924.2 K | 166.2
926.7 K | 166.37
929.2 K | 166.53
931.7 K | 166.66
934.2 K | 166.07
936.7 K | 166.68
939.2 K | 167.32
941.7 K | 167.41
944.2 K | 167.52
946.7 K | 167.43
949.2 K | 167.53
951.7 K | 167.51
